{"source": "patent US10294202B2", "about": "“Pyrrolidinones as herbicides” (FMC Corporation, priority 2013, dated 2019)", "key": {"cupgrass, woolly": {"test_system": "cupgrass, woolly", "experiment": "Test C pre-/postemergence herbicide test", "type": "in vivo, Eriochloa villosa", "how_it_was_run": "(§1)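 Herbicidal effect was judged by eye 13 to 15 days after treatment in the greenhouse, using a 0–100 scale against controls. Chemicals in a non-phytotoxic solvent with surfactant were sprayed onto planted loam/sand soil or onto plants 2 to 18 cm tall in a peat-based growing medium.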"}, "goosegrass": {"test_system": "goosegrass", "experiment": "Test C pre-/postemergence herbicide test", "type": "in vivo, Eleusine indica", "how_it_was_run": "as §1"}, "bromegrass, downy [1]": {"test_system": "bromegrass, downy", "experiment": "Test C pre-/postemergence herbicide test", "type": "in vivo, Bromus tectorum", "how_it_was_run": "as §1"}, "bermudagrass": {"test_system": "bermudagrass", "experiment": "Test C pre-/postemergence herbicide test", "type": "in vivo, Cynodon dactylon", "how_it_was_run": "as §1"}, "foxtail, green": {"test_system": "foxtail, green", "experiment": "Test C pre-/postemergence herbicide test", "type": "in vivo, Setaria viridis", "how_it_was_run": "as §1"}, "sunflower": {"test_system": "sunflower", "experiment": "Test C pre-/postemergence herbicide test", "type": "in vivo, Helianthus annuus", "settings": "Preemergence", "how_it_was_run": "as §1"}, "bromegrass, downy [2]": {"test_system": "bromegrass, downy", "experiment": "Test D pre-/postemergence herbicide test", "type": "in vivo, Bromus tectorum", "settings": "Postemergence, Bromegrass, Downy, scale 0 to 100", "how_it_was_run": "(§2)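 Plants were maintained 7 to 21 days in a controlled environment after treatment and then scored visually against controls (0 no effect, 100 complete control). Seeds in silt loam received preemergence sprays, and 1- to 4-leaf plants received postemergence sprays, both formulated in non-phytotoxic solvent with surfactant.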"}, "cocklebur": {"test_system": "cocklebur", "experiment": "Test C pre-/postemergence herbicide test", "type": "in vivo, Xanthium strumarium", "how_it_was_run": "as §1"}, "surinam grass": {"test_system": "surinam grass", "experiment": "Test C pre-/postemergence herbicide test", "type": "in vivo, Brachiaria decumbens", "how_it_was_run": "as §1"}, "chickweed": {"test_system": "chickweed", "experiment": "Test D pre-/postemergence herbicide test", "type": "in vivo, Stellaria media", "settings": "Postemergence, Chickweed, scale 0 to 100", "how_it_was_run": "as §2"}, "nightshade": {"test_system": "nightshade", "experiment": "Test C pre-/postemergence herbicide test", "type": "in vivo, Solanum ptycanthum", "settings": "Preemergence", "how_it_was_run": "as §1"}, "[3]": {"settings": "Postemergence, 31 g ai/ha, scale 0 (no effect) to 100 (complete control)"}, "[4]": {"settings": "Postemergence, 62 g ai/ha, scale 0 to 100 (0 no effect, 100 complete control)"}, "[5]": {"settings": "Postemergence, 125 g ai/ha, scale 0 to 100 (0 no effect, 100 complete control)"}, "[6]": {"settings": "Postemergence, 250 g ai/ha, scale 0 to 100 (0 no effect, 100 complete control)"}, "[7]": {"settings": "Preemergence, 31 g ai/ha, scale 0 to 100 (0 no effect, 100 complete control)"}, "[8]": {"settings": "Preemergence, 62 g ai/ha, scale 0 to 100"}, "[9]": {"settings": "Preemergence, 125 g ai/ha, scale 0 to 100 (0 no effect, 100 complete control)"}, "[10]": {"settings": "Preemergence, 250 g ai/ha, scale 0 to 100 (0 no effect, 100 complete control)"}, "[11]": {"settings": "125 g ai/ha, scale 0 to 100 (0 no effect, 100 complete control)"}}}
{"smiles": "O=C1NCC(c2cc(F)c(F)c(F)c2)C1C(=O)Nc1ccccc1F", "note": "(racemic) [Compound 34]", "values": [{"measurement": "Plant response rating, Cupgrass, Woolly", "setting": "cupgrass, woolly; [3]", "value": 0}, {"measurement": "Plant response rating, Cupgrass, Woolly", "setting": "cupgrass, woolly; [4]", "value": 0}, {"measurement": "Plant response rating, Cupgrass, Woolly", "setting": "cupgrass, woolly; [5]", "value": 0}, {"measurement": "Plant response rating, Cupgrass, Woolly", "setting": "cupgrass, woolly; [6]", "value": 30}, {"measurement": "Cupgrass, Woolly plant response rating", "setting": "cupgrass, woolly; [7]", "value": 50}, {"measurement": "Plant response rating, Cupgrass, Woolly", "setting": "cupgrass, woolly; [8]", "value": 85}, {"measurement": "Plant response rating, Cupgrass, Woolly", "setting": "cupgrass, woolly; [9]", "value": 95}, {"measurement": "Plant response rating, Cupgrass, Woolly", "setting": "cupgrass, woolly; [10]", "value": 95}, {"measurement": "Plant response rating, Goosegrass", "setting": "goosegrass; [3]", "value": 10}, {"measurement": "Plant response rating, Goosegrass", "setting": "goosegrass; [4]", "value": 15}, {"measurement": "Plant response rating, Goosegrass", "setting": "goosegrass; [5]", "value": 15}, {"measurement": "Plant response rating, Goosegrass", "setting": "goosegrass; [6]", "value": 25}, {"measurement": "Goosegrass plant response rating", "setting": "goosegrass; [7]", "value": 0}, {"measurement": "Plant response rating, Goosegrass", "setting": "goosegrass; [8]", "value": 5}, {"measurement": "Plant response rating, Goosegrass", "setting": "goosegrass; [9]", "value": 10}, {"measurement": "Plant response rating, Bromegrass, Downy", "setting": "bromegrass, downy [1]; [3]", "value": 0}, {"measurement": "Plant response rating, Bromegrass, Downy", "setting": "bromegrass, downy [1]; [4]", "value": 0}, {"measurement": "Plant response rating, Bromegrass, Downy", "setting": "bromegrass, downy [1]; [5]", "value": 0}, {"measurement": "Plant response rating, Bromegrass, Downy", "setting": "bromegrass, downy [1]; [6]", "value": 0}, {"measurement": "Bromegrass, Downy plant response rating", "setting": "bromegrass, downy [1]; [7]", "value": 0}, {"measurement": "Plant response rating, Bromegrass, Downy", "setting": "bromegrass, downy [1]; [8]", "value": 0}, {"measurement": "Plant response rating, Bromegrass, Downy", "setting": "bromegrass, downy [1]; [9]", "value": 10}, {"measurement": "Plant response rating, Bromegrass, Downy", "setting": "bromegrass, downy [1]; [10]", "value": 30}, {"measurement": "Plant response rating, Bermudagrass", "setting": "bermudagrass; [3]", "value": 0}, {"measurement": "Plant response rating, Bermudagrass", "setting": "bermudagrass; [4]", "value": 0}, {"measurement": "Plant response rating, Bermudagrass", "setting": "bermudagrass; [5]", "value": 0}, {"measurement": "Plant response rating, Bermudagrass", "setting": "bermudagrass; [6]", "value": 0}, {"measurement": "Bermudagrass plant response rating", "setting": "bermudagrass; [7]", "value": 0}, {"measurement": "Plant response rating, Bermudagrass", "setting": "bermudagrass; [8]", "value": 0}, {"measurement": "Plant response rating, Bermudagrass", "setting": "bermudagrass; [9]", "value": 0}, {"measurement": "Plant response rating, Bermudagrass", "setting": "bermudagrass; [10]", "value": 45}, {"measurement": "Plant response rating, Foxtail, Green", "setting": "foxtail, green; [3]", "value": 0}, {"measurement": "Plant response rating, Foxtail, Green", "setting": "foxtail, green; [4]", "value": 60}, {"measurement": "Plant response rating, Foxtail, Green", "setting": "foxtail, green; [5]", "value": 60}, {"measurement": "Plant response rating, Foxtail, Green", "setting": "foxtail, green; [6]", "value": 60}, {"measurement": "Foxtail, Green plant response rating", "setting": "foxtail, green; [7]", "value": 98}, {"measurement": "Plant response rating, Foxtail, Green", "setting": "foxtail, green; [8]", "value": 98}, {"measurement": "Plant response rating, Foxtail, Green", "setting": "foxtail, green; [9]", "value": 98}, {"measurement": "Plant response rating, Foxtail, Green", "setting": "foxtail, green; [10]", "value": 100}, {"measurement": "Plant response rating Sunflower", "setting": "sunflower; 62 g ai/ha, scale 0 to 100", "value": 0}, {"measurement": "Plant response rating Sunflower", "setting": "sunflower; [11]", "value": 0}, {"measurement": "Plant response rating", "setting": "bromegrass, downy [2]; 16 g ai/ha", "value": 0}, {"measurement": "Plant response rating", "setting": "bromegrass, downy [2]; 31 g ai/ha", "value": 0}, {"measurement": "Plant response rating", "setting": "bromegrass, downy [2]; 62 g ai/ha", "value": 0}, {"measurement": "Plant response rating", "setting": "bromegrass, downy [2]; 125 g ai/ha", "value": 0}, {"measurement": "Plant response rating", "setting": "bromegrass, downy [2]; 250 g ai/ha", "value": 0}, {"measurement": "Plant response rating, Cocklebur", "setting": "cocklebur; [3]", "value": 0}, {"measurement": "Plant response rating, Cocklebur", "setting": "cocklebur; [4]", "value": 5}, {"measurement": "Plant response rating, Cocklebur", "setting": "cocklebur; [5]", "value": 5}, {"measurement": "Plant response rating, Cocklebur", "setting": "cocklebur; [6]", "value": 25}, {"measurement": "Cocklebur plant response rating", "setting": "cocklebur; [7]", "value": 0}, {"measurement": "Plant response rating, Cocklebur", "setting": "cocklebur; [8]", "value": 0}, {"measurement": "Plant response rating, Cocklebur", "setting": "cocklebur; [9]", "value": 0}, {"measurement": "Plant response rating, Cocklebur", "setting": "cocklebur; [10]", "value": 0}, {"measurement": "Plant response rating, Surinam Grass", "setting": "surinam grass; [3]", "value": 0}, {"measurement": "Plant response rating, Surinam Grass", "setting": "surinam grass; [4]", "value": 0}, {"measurement": "Plant response rating, Surinam Grass", "setting": "surinam grass; [5]", "value": 55}, {"measurement": "Plant response rating, Surinam Grass", "setting": "surinam grass; [6]", "value": 60}, {"measurement": "Plant response rating, Surinam Grass", "setting": "surinam grass; [8]", "value": 95}, {"measurement": "Plant response rating, Surinam Grass", "setting": "surinam grass; [9]", "value": 100}, {"measurement": "Plant response rating", "setting": "chickweed; 16 g ai/ha", "value": 0}, {"measurement": "Plant response rating", "setting": "chickweed; 31 g ai/ha", "value": 0}, {"measurement": "Plant response rating", "setting": "chickweed; 62 g ai/ha", "value": 0}, {"measurement": "Plant response rating", "setting": "chickweed; 125 g ai/ha", "value": 10}, {"measurement": "Plant response rating", "setting": "chickweed; 250 g ai/ha", "value": 20}, {"measurement": "Plant response rating, Nightshade", "setting": "nightshade; 62 g ai/ha, scale 0 to 100", "value": 0}, {"measurement": "Plant response rating, Nightshade", "setting": "nightshade; [11]", "value": 0}]}
